# Results reported in patent publication US8470847B2, “Derivatives of 7-alkynyl-1,8-naphthyridones, preparation method thereof and use of same in therapeutics” (Sanofi, priority 2007, dated 2013).
# pIC50: −log10 of the molar value.
# Molecular target: VEGFR-3 (Homo sapiens (Human), UniProt P35916)
# Assay: Measurement of the tyrosine kinase activity of VEGFR-3 by ELISA
# Assay type: biochemical
# Conditions: VEGFR-3-TK, poly Glu-Tyr substrate, 30 μM ATP
# Protocol: Measurement of the Tyrosine Kinase Activity of VEGFR-3 by ELISA
# The enzymatic activity of VEGFR-3 is evaluated on an ELISA assay by measuring the intensity of phosphorylation of the substrate poly Glu-Tyr. […] The plate is then covered with an adhesive film and incubated overnight at 37° C. The following day, the wells are emptied by turning the plate over, washed by adding 300 μl of buffer solution (PBS+0.05% Tween 20) and dried by further incubation of the plate for 2 h at 37° C. A 90 μl reaction mixture is deposited onto each well. […] The plates are then incubated with gentle agitation at ambient temperature for 30 min. After 3 rinses with the buffer solution (300 μl/well per wash), 100 μl of anti-phosphotyrosine-HRP antibody ( 1/30 000) are added to each well and the plates are again incubated for 30 min at ambient temperature with gentle agitation. […] The total activity is evaluated by the difference in optical density obtained on samples incubated in the presence (stimulated) and in the absence (non-stimulated) of VEGFR-3.
# Sequence of VEGFR-3 (P35916 845-1173): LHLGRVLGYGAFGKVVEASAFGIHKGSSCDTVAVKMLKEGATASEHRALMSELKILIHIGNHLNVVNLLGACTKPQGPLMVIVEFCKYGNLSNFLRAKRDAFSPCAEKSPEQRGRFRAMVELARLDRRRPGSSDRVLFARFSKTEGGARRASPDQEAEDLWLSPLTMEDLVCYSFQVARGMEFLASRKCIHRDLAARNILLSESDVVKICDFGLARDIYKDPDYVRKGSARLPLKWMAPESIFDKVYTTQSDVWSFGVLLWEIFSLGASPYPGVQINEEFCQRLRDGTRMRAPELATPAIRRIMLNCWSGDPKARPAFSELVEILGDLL
row,SMILES,pIC50
1,"CCn1c(N)c(C(=O)NC)c(=O)c2ccc(C#CC(C)(O)COC)nc21 (single isomer, unassigned; (-)) [Compound 72, (−)-2-amino-1-ethyl-7-(3-hydroxy-4-methoxy-3-methylbut-1-yn-1-yl)-N-methyl-4-oxo-1,4-dihydro-1,8-naphthyridine-3-carboxamide]",7.64

# Test system: not given
# Assay: not given
# Conditions: not given
row,SMILES,melting point
1,"CCn1c(N)c(C(=O)NC)c(=O)c2ccc(C#CC(C)(O)c3cnccn3)nc21 (racemic) [Compound 48, (±)-2-Amino-1-ethyl-7-(3-hydroxy-3-pyrazin-2-ylbut-1-yn-1-yl)-N-methyl-4-oxo-1,4-dihydro-1,8-naphthyridine-3-carboxamide]",271 °C
2,"CCn1c(N)c(C(=O)NC)c(=O)c2ccc(C#CC(O)(COC)C3CC3)nc21 (racemic) [Compound 50, (±)-2-Amino-7-(3-cyclopropyl-3-hydroxy-4-methoxybut-1-yn-1-yl)-1-ethyl-N-methyl-4-oxo-1,4-dihydro-1,8-naphthyridine-3-carboxamide]",208 °C
3,"CCn1c(N)c(C(=O)NC)c(=O)c2ccc(C#CC3(O)CCOC3)nc21 (racemic) [Compound 7, (±)-2-Amino-1-ethyl-7-[(3-hydroxytetrahydrofuran-3-yl)ethynyl]-N-methyl-4-oxo-1,4-dihydro-1,8-naphthyridine-3-carboxamide]",253 °C
4,CNC(=O)c1c(N)n(Cc2ccccn2)c2nc(C#CC(C)(O)COC)ccc2c1=O (racemic),169 °C

# More lines, now with the values ahead:
row,melting point,SMILES
1,210.5 °C,"CNC(=O)c1c(N)n(C2CCCC2)c2nc(C#CC(C)(O)CO)ccc2c1=O (racemic) [Compound 53, (±)-2-Amino-1-cyclopentyl-7-(3,4-dihydroxy-3-methylbut-1-yn-1-yl)-N-methyl-4-oxo-1,4-dihydro-1,8-naphthyridine-3-carboxamide]"
2,253 °C,"CCn1c(N)c(C(=O)NC)c(=O)c2ccc(C#CC(O)C3CCCC3)nc21 (racemic) [Compound 10, (±)-2-Amino-7-(3-cyclopentyl-3-hydroxyprop-1-yn-1-yl)-1-ethyl-N-methyl-4-oxo-1,4-dihydro-1,8-naphthyridine-3-carboxamide]"
